{
  "source": "patent US5795897A",
  "about": "“Oxohexyl methylxanthine compounds” (Cell Therapeutics, Inc., priority 1994, dated 1998)",
  "key": {"[1]": {"tested_on": "polymorphonuclear leukocytes", "details": "in response to a stimulator of chemotaxis; U.S. Pat. No. 4,636,507; cited from earlier work"}, "[2]": {"details": "U.S. Pat. Nos 4,515,795 and 4,576,947; cited from earlier work"}, "[3]": {"tested_on": "TNF", "details": "normal volunteers; cited from earlier work"}, "[4]": {"tested_on": "certain cytokines", "details": "U.S. Pat. Nos. 4,965,271 and 5,096,906; cited from earlier work"}, "[5]": {"tested_on": "L929 murine fibroblast cells", "assay": "L929 TNF cytotoxicity assay (protection, fluorescent viability dye)", "assay_type": "cell-based", "details": "TNF-α 500 pg/ml, 40 hrs at 37° C; 2 hrs preincubation; FIG. 1", "method": "The cells plus (or minus) drug plus TNF were incubated for 40 hrs at 37° C."}, "[6]": {"tested_on": "U937 cells to TNF activated human umbilical vein endothelial cells (HUVEC)", "assay": "Adhesion of U937 cells to TNF-activated HUVEC", "assay_type": "cell-based", "details": "FIG. 2", "method": "This example illustrates the effects of CT1505 to inhibit adhesion of U937 cells to TNF-activated HUVEC cells In this experiment, HUVEC cells were induced with human TNF-α(20ng/ml) and incubated with drug (CT1505) at varying concentrations for 14-16 hrs. U937 cells (a human monocyte cell line) were incubated and labeled with BCECF (10 μg/ml), a fluorescent dye. The U937 cell preparation (2.5×10^4 cells per well) was layered on top of the activated HUVEC cells. The cells were reverse spun to remove partially adhering and nonadhering U937 cell. The adherent U937 cells were measured by fluorescence on a fluorescent plate reader."}, "[7]": {"tested_on": "LD-2 cells, a human malignant melanoma cell line", "assay": "Cytotoxicity on LD-2 cells", "assay_type": "cell-based", "details": "various concentrations, FIG. 3", "method": "The cells were treated with various concentrations of CT1505 and later stained for cell viability with a fluorescence stain.\n(§1) 1-(5-oxohexyl)-3-methylxanthine was investigated for cytotoxicity to determine appropriate doses for biological activity assays and to prevent cytotoxic reactions in in vitro assays when characterizing activity. Cells (e.g., NIH-3T3, Ras transformed 3T3 cells, malignant melanoma LD2 cells, etc.) are added to microtiter plates and drug is added about two days after plating. Cell viability is determined using a fluorescent viability stain (2', 7'-bis-(2-carboroxyethyl)-5-(and -6)-carboxyfluorescein acetoxymethyl ester, BCECF excitation 488 nm and emission 525 nm) 24,48 or 72 hours after addition of the drug.\nThis example illustrates that CT1505 has cytotoxic activity for the LD-2 tumor cell line. Cytotoxicity of LD-2 cells was determined with concentrations of CT1505 up to 1.0 mM (see FIG. 3)."}, "[8]": {"tested_on": "NIH-3T3 cells", "assay": "Cytotoxicity on NIH-3T3 cells", "assay_type": "cell-based", "details": "various concentrations, FIG. 4", "method": "(§2) The cells were treated with various concentrations of CT1505 (in the mM range on a log scale) and later stained for cell viability with a fluorescence stain.\nas §1\n(§3) This example illustrates that CT1505 has cytotoxic activity for NIH-3T3 and NIH-Ras transformed tumor cells. Cytotoxicity of the cells was determined with concentrations of CT1505 up to 1.0 mM (see FIG. 4)."}, "[9]": {"tested_on": "NIH-3T3 Ras cells", "assay": "Cytotoxicity on Ras transformed NIH-3T3 cells", "assay_type": "cell-based", "details": "various concentrations, FIG. 4", "method": "as §2, §1, §3"}, "[10]": {"tested_on": "PBMC (peripheral blood mononuclear cells)", "assay": "Mixed lymphocyte reaction", "assay_type": "cell-based, human", "details": "CT1505 versus PTX, FIG. 5", "description": "Various in vitro assays can be used to measure effects of 1-(5-oxohexyl)-3methylxanthine to module immune activity and have antitumor activity using a variety of cellular types. For example, a mixed lymphocyte reaction (MLR) provides a valuable screening tool to determine biological activity of 1-(5-oxohexyl)-3-methylxanthine. In the MLR, PBMCs (peripheral blood mononuclear cells) are obtained by drawing whole blood from healthy volunteers in a heparinized container and diluted with an equal volume of hanks balanced salt solution (HBSS). This mixture is layered on a sucrose density gradient, such as a Ficoll-Hypaque® gradient (specific gravity 1.08), and centrifuged at 1000×g for 25 minutes at room temperature or cooler. PBMC are obtained from a band at a plasma-Ficoll interface, separated and washed at least twice in a saline solution, such as HBSS. Contaminating red cells are lysed, such as by ACK lysis for 10 min at 37° C., and the PBMCs are washed twice in HBSS. The pellet of purified PBMCs is resuspended in complete medium, such as RPMI 1640 plus 20% human inactivated serum. Proliferative response of PBMC to allogeneic stimulation is determined in a two-way MLR performed in a 96-well microtiter plate. […] At the conclusion of the incubation tritiated thymidine is added (for example, 1 μCi/well of 40 to 60 Ci/mmole) and proliferation determined by liquid scintillation counting. […]"}, "[11]": {"tested_on": "synaptosomes stimulated with acetylcholine and/or epinephrine (PA and DAG)", "assay": "PA and DAG levels in stimulated synaptosomes", "assay_type": "biochemical", "method": "(§4) One in vitro assay measures inhibition of the relevant enzymes lysophosphatidic acid acyltransferase (LPAAT) and phosphatidic acid phosphoryl hydrolase (PAPH). The assay involves incubating of target cells with a primary stimulus (e.g., a variety of cytokines, growth factors, oncogene products, putative therapeutic agents, irradiation, viral infection, toxins, bacterial infection and the products thereof, and any stimulus which, if not counteracted, has a deleterious effect on the target cell) in the presence or absence of 1-(5-oxohexyl)-3-methylxanthineat varying dosage levels. Target cells include, for example, subcellular entities, such as, microsomes derived from mesenchymal and/or ectodermal cells, particularly microsomes from marrow stromal cells or human or rat mesangial cells; microsomes or synaptosomes derived from bovine brain; plasma membrane-enriched microsomes or plasma membranes derived as described in Bursten et al. (J. Biol. Chem. […]:20732-20743, 1991) detergent-solubilized microsomes; synaptosomes, and membranes or other cell preparations solubilized using, for example, NP-40,Miranal, SDS or other neutral detergents; and detergent-solubilized or further purified preparations of cell proteins, including the proteins LPAAT and/or PAPH. […] Thus, the relevant unsaturated (non-arachidonic) PA and DAG subspecies may be detected. […]"}, "[12]": {"tested_on": "PA and DAG", "assay": "Elevation of PA and DAG upon primary stimulus", "assay_type": "cell-based", "details": "e.g. interleukin-1 or TNF", "method": "as §4"}},
  "note": "“Also recorded” adds a separate entry of the source.",
  "data": [
    {"compound": "CC(O)CCCCn1c(=O)c2c(ncn2C)n(C)c1=O", "note": "(centres unmarked) [M1, 1-(5-hydroxyhexyl)-3,7-dimethylxanthine]", "values": [
      {"measurement": "chemotaxis in polymorphonuclear leukocytes", "setting": "[1]", "result": "stimulate chemotaxis"},
      {"measurement": "cerebral blood flow", "setting": "[2]", "result": "increasing cerebral blood flow"}
    ]},
    {"compound": "CC(=O)CCCCn1c(=O)c2c(ncn2C)n(C)c1=O", "note": "[PTX, 1-(5-oxohexyl)-3,7-dimethylxanthine]", "values": [
      {"measurement": "chemotaxis in polymorphonuclear leukocytes", "setting": "[1]", "result": "stimulate chemotaxis"},
      {"measurement": "TNF levels", "setting": "[3]", "result": "TNF levels were higher among PTX recipients"},
      {"measurement": "activity of certain cytokines to affect chemotaxis", "setting": "[4]", "result": "inhibit activity of certain cytokines"}
    ]},
    {"compound": "CC(=O)CCCCn1c(=O)c2[nH]cnc2n(C)c1=O", "note": "[CT1505, 1-(5-oxohexyl)-3-methylxanthine]", "values": [
      {"measurement": "protection of fibroblast cells from TNF cytotoxicity", "setting": "[5]", "result": "protected the fibroblast cells from TNF cytotoxicity better than PTX and much better than the control cells"},
      {"measurement": "concentration range of adhesion inhibitory activity", "setting": "[6]; TNF-activated HUVEC", "result": "tenths of mM"},
      {"measurement": "inhibition of adhesion of U937 cells to activated HUVEC", "setting": "[6]; TNF-α 20 ng/ml, 14-16 hrs", "result": "inhibits adhesion of U937 cells to TNF activated human umbilical vein endothelial cells; also recorded: inhibited the inflammatory response of the activated HUVEC cells to adhere U937 monocytes in a dose response fashion"},
      {"measurement": "cytotoxicity", "setting": "[7]", "result": "cytotoxic at higher concentrations"},
      {"measurement": "cytotoxicity", "setting": "[8]", "result": "cytotoxic at higher concentrations"},
      {"measurement": "cytotoxicity", "setting": "[9]", "result": "cytotoxic at higher concentrations"},
      {"measurement": "immune modulating activity", "setting": "[10]", "result": "more potent immune modulating activity with CT1505 than with PTX; also recorded: more potent drug for cause immune modulating activity than was PTX"},
      {"measurement": "effect on enhanced PA and DAG levels", "setting": "[11]", "result": "able to decrease enhanced levels of a relevant PA and DAG"},
      {"measurement": "effect on elevation of PA and DAG levels", "setting": "[12]", "result": "reverses this elevation"}
    ]}
  ]
}
